According to ChEMBL document CHEMBL5120879, “Medicinal Chemistry Strategies for the Development of Bruton's Tyrosine Kinase Inhibitors against Resistance” (J Med Chem, 2022):

Experiments:
[1] = Inhibition of BTK C481Y mutant (unknown origin); design: species or system Homo sapiens
[2] = target: T1, Tyrosine-protein kinase BTK (Homo sapiens, UniProt Q06187, C481S); assay: Induction of degradation of Ibrutinib-resistant BTK C481S mutant (unknown origin)
[3] = target: Protein cereblon/Tyrosine-protein kinase BTK (Homo sapiens, UniProt Q06187+Q96SW2); assay: PROTAC activity at CRBN/BTK (unknown origin) assessed as BTK degradation; assay type: protein assay
[4] = target: T2, Tyrosine-protein kinase BTK (Homo sapiens, UniProt Q06187); assay: Induction of degradation of BTK in human Ramos cells at 100 nM relative to control; assay type: cell-based
[5] = target: T2, Tyrosine-protein kinase BTK; assay: Induction of degradation of BTK in human Ramos cells at 10 nM relative to control; assay type: cell-based
[6] = Inhibition of cell proliferation in human HBL1 cells harboring Ibrutinib-resistant BTK C481S mutant assessed as cell growth inhibition; assay type: functional
[7] = target: T2, Tyrosine-protein kinase BTK; assay: Inhibition of wild-type BTK (unknown origin)
[8] = target: T1, Tyrosine-protein kinase BTK; assay: Inhibition of BTK C481S mutant (unknown origin)
[9] = Intrinsic clearance in mouse; assay type: ADME, organism-based; details: in vivo
[10] = target: T2, Tyrosine-protein kinase BTK; assay: Inhibition of BTK (unknown origin)
[11] = target: von Hippel-Lindau disease tumor suppressor/Tyrosine-protein kinase BTK (Homo sapiens, UniProt Q06187+P40337); assay: PROTAC activity at VHL/BTK (unknown origin) assessed as induction of BTK degradation; assay type: protein assay
von Hippel-Lindau disease tumor suppressor/Tyrosine-protein kinase BTK, sequence (Q06187 whole entry): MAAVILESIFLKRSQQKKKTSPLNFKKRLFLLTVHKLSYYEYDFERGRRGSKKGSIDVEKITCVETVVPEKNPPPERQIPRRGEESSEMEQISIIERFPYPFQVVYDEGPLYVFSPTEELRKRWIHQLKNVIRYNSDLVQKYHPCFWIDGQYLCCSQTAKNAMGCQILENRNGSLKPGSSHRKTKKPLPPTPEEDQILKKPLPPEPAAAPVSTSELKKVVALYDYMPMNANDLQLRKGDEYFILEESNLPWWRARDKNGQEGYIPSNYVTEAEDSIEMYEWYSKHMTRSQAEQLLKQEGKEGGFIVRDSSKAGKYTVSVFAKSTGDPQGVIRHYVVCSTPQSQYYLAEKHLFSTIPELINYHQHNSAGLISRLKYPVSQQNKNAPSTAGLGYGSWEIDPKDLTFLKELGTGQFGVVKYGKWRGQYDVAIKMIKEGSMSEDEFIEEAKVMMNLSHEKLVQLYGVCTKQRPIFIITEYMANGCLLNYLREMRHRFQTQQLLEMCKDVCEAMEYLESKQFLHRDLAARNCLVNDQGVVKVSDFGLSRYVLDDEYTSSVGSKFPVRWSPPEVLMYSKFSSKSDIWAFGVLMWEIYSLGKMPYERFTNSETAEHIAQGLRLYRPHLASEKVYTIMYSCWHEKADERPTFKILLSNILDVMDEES
von Hippel-Lindau disease tumor suppressor/Tyrosine-protein kinase BTK, sequence (P40337 whole entry): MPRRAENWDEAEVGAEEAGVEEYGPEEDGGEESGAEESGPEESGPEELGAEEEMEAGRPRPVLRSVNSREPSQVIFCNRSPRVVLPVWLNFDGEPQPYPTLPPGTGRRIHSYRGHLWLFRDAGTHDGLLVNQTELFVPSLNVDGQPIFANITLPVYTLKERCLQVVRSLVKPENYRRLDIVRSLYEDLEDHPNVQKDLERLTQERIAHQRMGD

T2 sequence (Q06187 whole entry): as the sequence (Q06187 whole entry) above
Protein cereblon/Tyrosine-protein kinase BTK, sequence (Q06187 whole entry): as above
Protein cereblon/Tyrosine-protein kinase BTK, sequence (Q96SW2 whole entry): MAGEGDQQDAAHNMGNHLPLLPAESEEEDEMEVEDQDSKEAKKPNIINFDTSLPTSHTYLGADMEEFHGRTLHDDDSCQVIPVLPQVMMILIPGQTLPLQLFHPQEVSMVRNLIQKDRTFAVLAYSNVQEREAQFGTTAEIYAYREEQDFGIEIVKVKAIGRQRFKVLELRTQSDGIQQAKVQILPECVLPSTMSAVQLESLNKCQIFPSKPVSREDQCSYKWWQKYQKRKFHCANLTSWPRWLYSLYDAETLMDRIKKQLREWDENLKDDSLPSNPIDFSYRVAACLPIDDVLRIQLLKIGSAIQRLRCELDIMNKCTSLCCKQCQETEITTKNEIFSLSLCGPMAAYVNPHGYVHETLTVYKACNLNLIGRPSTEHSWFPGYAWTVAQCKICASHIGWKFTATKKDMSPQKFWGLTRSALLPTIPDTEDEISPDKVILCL
T1 sequence (Q06187 2-659 C481S limits assumed): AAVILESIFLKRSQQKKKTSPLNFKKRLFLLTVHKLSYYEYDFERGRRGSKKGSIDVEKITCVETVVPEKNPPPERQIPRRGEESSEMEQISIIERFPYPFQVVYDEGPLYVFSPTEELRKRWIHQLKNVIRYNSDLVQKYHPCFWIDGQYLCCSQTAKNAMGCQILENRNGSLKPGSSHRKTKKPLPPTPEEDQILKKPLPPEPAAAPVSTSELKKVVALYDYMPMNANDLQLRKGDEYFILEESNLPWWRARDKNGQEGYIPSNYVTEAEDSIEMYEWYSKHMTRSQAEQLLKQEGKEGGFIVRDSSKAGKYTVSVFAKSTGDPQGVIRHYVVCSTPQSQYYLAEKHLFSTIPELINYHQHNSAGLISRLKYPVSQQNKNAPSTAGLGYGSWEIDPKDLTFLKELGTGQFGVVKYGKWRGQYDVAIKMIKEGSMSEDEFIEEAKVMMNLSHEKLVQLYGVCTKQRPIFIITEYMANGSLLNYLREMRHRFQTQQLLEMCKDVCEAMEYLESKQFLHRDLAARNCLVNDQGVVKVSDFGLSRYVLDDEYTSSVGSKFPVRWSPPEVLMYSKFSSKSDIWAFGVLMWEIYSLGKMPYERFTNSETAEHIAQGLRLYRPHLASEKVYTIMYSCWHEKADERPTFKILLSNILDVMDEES

Work on `Nc1nccn2c([C@@H]3CC[C@H]4CN(CCO)CC(=O)N4C3)nc(-c3ccc(C(=O)Nc4cc(C(F)(F)F)ccn4)cc3)c12` yielded an IC50 [1] of 0.1 nM.

`COc1cc(Nc2c(C#N)cnc3cc(OCCCN4CCN(CCOCCOCCNc5cccc6c5C(=O)N(C5CCC(=O)NC5=O)C6=O)CC4)c(OC)cc23)c(Cl)cc1Cl` (stereo not drawn) showed a DC50 [2] of 30 nM.

In the case of `Nc1ncnc2c1c(-c1ccc(Oc3ccccc3)cc1)nn2[C@@H]1CCCN(C(=O)c2cn(CCOCCOCCOCCNc3cccc4c3C(=O)N(C3CCC(=O)NC3=O)C4=O)nn2)C1` (stereo partly drawn), the DC50 [3] is reported as 6.3 nM, the Activity [4] is reported as 89% and the Activity [5] is reported as 73%. It also gave a GI50 [6] of 28 nM.

In the case of `O=C(c1ccc(Oc2ccccc2)cc1Cl)c1c[nH]c2ncnc(N[C@H]3CCC[C@H](CO)O3)c12`, the IC50 [7] is reported as 0.85 nM and the IC50 [8] is reported as 0.39 nM.

Compound `Nc1ncnc2c1c(-c1ccc(Oc3ccccc3)cc1)nn2[C@@H]1CCCN(Cc2cn(CCOCCOCCOCCNc3cccc4c3CN(C3CCC(=O)NC3=O)C4=O)nn2)C1` (stereo partly drawn) has a DC50 [3] of 29 nM and a GI50 [6] of 30 nM.

Compound `Nc1ncnc2c1c(-c1ccc(Oc3ccccc3)cc1)nn2C1CCN(CCOCCOCC(=O)Nc2ccc3c(c2)C(=O)N(C2CCC(=O)NC2=O)C3=O)CC1` (stereo not drawn) has a CLint scaled [9] of 1660 mL/min/kg.

With `Cc1cc(C(N)=O)c2[nH]c3cc(C(C)(C)O)ccc3c2c1-c1cccc(-n2c(=O)[nH]c3c(F)cccc3c2=O)c1O` the IC50 [10] was 0.3 nM.

In the case of `Nc1ncnc2c1c(-c1ccc(Oc3ccccc3)cc1)nn2C1CCN(CCOCCOCCOc2ccc3c(c2)CN(C2CCC(=O)NC2=O)C3=O)CC1` (stereo not drawn), the DC50 [11] is reported as 7.9 nM.
